Data: patent US5712129A, “Rapamycin derivative with antimicrobial, anticancer and immunomodulation activity” (SmithKline Beecham p. l. c., priority 1993, dated 1998)
Like-named read-outs stand apart in the source and are kept apart here.

System: Spleen cells
Assay: Mitogenesis assay for immunosuppressive activity (concanavalin A stimulated spleen cells, 3H-thymidine)
Format: cell-based, BDF1 female mice
Conditions: Mus musculus, read-out: Mitogenesis (IC50)
Procedure: Spleen cells for BDF1 female mice were established in RPMI with 10% fetal calf serum at 5×10^6 /mL. One hundred […] of this suspension (5×10^5 cells) were dispensed into 96-well round-bottomed microtiter plates (Linbro, Flow Laboratories). Concanavalin A (5 μg/ml) was added as the mitogenic stimulus, and the final volume in the microtiter wells was adjusted to 200 μL with RPMI. Cell cultures were incubated for 72 hours at 37° C. in a 5% CO2 atmosphere and pulsed with 0.5 μCi ^3 H-thymidine (specific activity […]) for the last 18 hours of the 72 hours culture. The cells were harvested on an automated multiple sample harvester and cell-associated radioactivity counted in a Beckman liquid scintillation counter. The results were expressed as the mean values derived from quadruplicate measurements. Cell viability was determined by trypan blue exclusion after 72 hours of incubation. Compounds to be tested were added to the microtiter plates at the appropriate dilutions prior to the addition of cells.

IC50 (Concanavalin A 5 μg/ml, 72 hours at 37° C., 3H-thymidine pulse last 18 hours) [nM] | SMILES | IC50 [nM]
3 | COC1CC2CCC(C)C(O)(O2)C(=O)C(=O)N2CCCCC2C(=O)OC(C(C)CC2CCC(O)C(O)C2)CC(=O)C(C)C=C(C)C(O)C(OC)C(=O)C(C)CC(C)C=CC=CC=C1C (centres unmarked) [42-O-demethylrapamycin] | 
 | CO[C@H]1C[C@@H]2CC[C@@H](C)[C@@](O)(O2)C(=O)C(=O)N2CCCC[C@H]2C(=O)O[C@H]([C@H](C)C[C@@H]2CC[C@@H](O)[C@H](OC)C2)CC(=O)[C@H](C)/C=C(\C)[C@@H](O)[C@@H](OC)C(=O)[C@H](C)C[C@H](C)/C=C/C=C/C=C/1C [rapamycin] | 1 ± 1
